Where two headings read alike, the source gives them in different places.
How the values were obtained:
[1] = TG-DTA examination in air atmosphere; type: physicochemical; conditions: for weight loss (TG-DTA): 300° C. (in air), heating rate 10° C./min
Method: Compounds 1 to 6 synthesized in (1) to (6) above were examined by TG-DTA (thermogravimetric-differential thermal analysis) in order to investigate the behavior thereof in thermal decomposition. The examination was made with apparatus for both differential thermal analysis and thermogravimetry TG/DTA6200, manufactured by SII Nano Technology Inc., in an air atmosphere (flow rate, 200 mL/min) under the conditions of a heating rate of 10° C./min. In [60]fullerene, a large weight loss accompanied by heat generation began to be observed at around 500° C. This weight loss was due to oxidation/combustion. […] This large weight loss is thought to be attributable to the pyrolysis of the fullerene derivative.

[2] = cited from earlier work
[3] = Solubility of fullerene derivatives in toluene (HPLC determination); type: physicochemical
Method: The solubility of a fullerene derivative can be determined, for example, by diluting a solution of the fullerene derivative with a good solvent, e.g., toluene, and examining the dilution with an analyzer such as, e.g., a high-performance liquid chromatograph (HPLC). More specifically, the procedure is as follows. A dilution of the fullerene derivative solution is analyzed with an HPLC having an ultraviolet/visible detector to determine that peak intensity for the fullerene derivative which is obtained from the absorbance of an ultraviolet light having a specific wavelength (e.g., 290 nm). The concentration of the fullerene derivative in the dilution of the fullerene derivative solution is determined from a calibration curve obtained beforehand from fullerene derivative standard solutions having known concentrations (prepared using the solvent used for diluting the fullerene derivative solution). This concentration value is multiplied by the dilution ratio to thereby determine the fullerene derivative concentration in the original fullerene derivative solution.

[4] = TG examination in nitrogen atmosphere; type: physicochemical; conditions: for weight loss (TG-DTA): heating rate 10° C./min; for temperature of weight loss attributable to pyrolysis, compared with air: in nitrogen, result in words
Method: The examination was made with apparatus for both differential thermal analysis and thermogravimetry TG/DTA6200, manufactured by SII Nano Technology Inc., in a nitrogen atmosphere (flow rate, 200 mL/min) under the conditions of a heating rate of 10° C./min.

[5] = Washing of coating films with toluene before and after heat treatment; type: physicochemical; conditions: coating film
Method: A 5% by mass PGMEA solution of each of Compounds 1, 2, and 5 and a 5% by mass cyclohexanone solution of each of Compounds 3 and 4 were prepared. Each solution was applied to a glass substrate (50×50 mm) with a spin coater and dried at 100° C. Thereafter, the coating films were examined with an optical microscope. As a result, these coating films were ascertained to be even. These coating films were washed with toluene. As a result, the films were removed. It was thus ascertained that the coating films from which the solvent had been removed were soluble in toluene.
The coating films of Compounds 1 to 5 each formed on a glass substrate in (8) were placed in an electric furnace heated at 300° C. and heat-treated for 10 minutes in an air atmosphere.
The fullerene films obtained by the heat treatment of the coating films of Compounds 1 to 3 were examined by X-ray diffractometry (XRD) with RINT 2500, manufactured by Rigaku Corp. […] Measuring conditions are as follows.
The films which had undergone the heat treatment(s) were washed with toluene. […] It can be seen that although the fullerene derivatives applied in film form had been soluble in toluene solvent, the derivatives became insoluble, through the heat treatment(s), in the solvent in which the fullerene is soluble.

[6] = after heat treatment (300° C./in air), 10 minutes

c12c3c4c5c1c1c6c7c2c2c8c3c3c9c4c4c%10c5c5c1c1c6c6c%11c7c2c2c7c8c3c3c8c9c4c4c9c%10c5c5c1c1c6c6c%11c2c2c7c3c3c8c4c4c9c5c1c1c6c2c3c41 [[60]fullerene]
temperature of oxidation/combustion (large weight loss with heat generation / large exothermic peak) ([1]; in air): around 500 °C | solubility of [60]fullerene in the solvent ([2]; 1,2,3-trimethylbenzene): 4700 µg/mL | solubility of [60]fullerene in the solvent ([2]; 1,2,4-trichlorobenzene): 10400 µg/mL | solubility of [60]fullerene in the solvent ([2]; 1,2,4-trimethylbenzene): 17900 µg/mL | solubility of [60]fullerene in the solvent ([2]; 1,3,5-trimethylbenzene): 1500 µg/mL | solubility of [60]fullerene in the solvent ([2]; 1-methylnaphthalene): 33200 µg/mL | solubility of [60]fullerene in the solvent ([2]; 1-phenylnaphthalene): 50000 µg/mL | solubility of [60]fullerene in the solvent ([2]; N-methyl-2-pyrrolidone): 890 µg/mL | solubility of [60]fullerene in the solvent ([2]; bromobenzene): 2800 µg/mL | solubility of [60]fullerene in the solvent ([2]; chlorobenzene): 5700 µg/mL | solubility of [60]fullerene in the solvent ([2]; chloroform): 500 µg/mL | solubility of [60]fullerene in the solvent ([2]; cyclohexane): 50 µg/mL | solubility of [60]fullerene in the solvent ([2]; decalin): 4600 µg/mL | solubility of [60]fullerene in the solvent ([2]; dichloromethane): 250 µg/mL | solubility of [60]fullerene in the solvent ([2]; ethylbenzene): 2600 µg/mL | solubility of [60]fullerene in the solvent ([2]; m-dichlorobenzene): 2400 µg/mL | solubility of [60]fullerene in the solvent ([2]; m-xylene): 1400 µg/mL | solubility of [60]fullerene in the solvent ([2]; n-decane): 70 µg/mL | solubility of [60]fullerene in the solvent ([2]; n-dodecane): 90 µg/mL | solubility of [60]fullerene in the solvent ([2]; n-hexane): 40 µg/mL | solubility of [60]fullerene in the solvent ([2]; n-tetradecane): 126 µg/mL | solubility of [60]fullerene in the solvent ([2]; o-dichlorobenzene): 24600 µg/mL | solubility of [60]fullerene in the solvent ([2]; o-xylene): 8700 µg/mL | solubility of [60]fullerene in the solvent ([2]; p-xylene): 5900 µg/mL | solubility of [60]fullerene in the solvent ([2]; quinoline): 7200 µg/mL | solubility of [60]fullerene in the solvent ([2]; tetrahydrofuran): 37 µg/mL | solubility of [60]fullerene in the solvent ([2]; toluene): 2900 µg/mL | solubility of [60]fullerene in the solvent ([2]; xylene): 5200 µg/mL

C60 (t-Butoxycarbonylmethylpiperazine)4(O) [Compound 6]
Solubility in toluene [3]: ≥ 10% | weight loss (TG-DTA) [1]: 38% | temperature of weight loss attributable to pyrolysis of the fullerene derivative ([1]; in air): around 200 °C | weight loss (TG-DTA) ([4]; 300° C. (in nitrogen)): 50% | temperature of weight loss attributable to pyrolysis, compared with air [4]: almost the same temperature as in air

C60(tBu-isonipecotate)4(O) [Compound 5]
Solubility in toluene [3]: ≥ 10% | weight loss (TG-DTA) [1]: 37% | temperature of weight loss attributable to pyrolysis of the fullerene derivative ([1]; in air): around 200 °C | weight loss (TG-DTA) ([4]; 300° C. (in nitrogen)): 44% | temperature of weight loss attributable to pyrolysis, compared with air [4]: almost the same temperature as in air | Solubility in toluene [5, 6]: insoluble | Solubility in toluene ([5]; before heat treatment): soluble

N-(4-hydroxyphenyl)-2-n-dodecylpyrrolidine-C60 [Compound 3]
Solubility in toluene [3]: 6% | weight loss attributable to fullerene derivative pyrolysis ([1]; TG in air, result in words): No weight loss attributable to fullerene derivative pyrolysis was observed | weight loss (TG-DTA) ([4]; 600° C. (in nitrogen)): 12% | Solubility in toluene [5, 6]: soluble | Solubility in toluene ([5]; after heat treatment (500° C./in air), 10 minutes): insoluble | Solubility in toluene ([5]; before heat treatment): soluble
